Results from patent US7479277B2, “Method for reducing intraocular pressure using integrin-linked kinase inhibitor” (Wisconsin Alumni Research Foundation, priority 2005, dated 2009).

Test system: cultured human trabecular meshwork (HTM) cells
Experiment: HTM cell spreading on fibronectin III7-10 coated coverslips, immunofluorescence microscopy
Type: cell-based
Procedure: A cultured human trabecular meshwork (HTM) diploid cell strain obtained from trabecular meshwork explants was serum-starved for twenty-four hours and then plated on 12 mm round glass coverslips (Bellco Glass, Inc.; Vineland, N.J.) coated with III7-10 domains of fibronectin (RGD cell-binding domain; 236 nM) for three hours at 37° C., 95% humidity, 5% CO2, ambient air. The cells were exposed to either DMSO (control) or an ILK inhibitor with or without 472 nM of the Hep II domain. Following incubation, cells were fixed for immunofluorescence microscopy by methods known to a skilled artisan.
HTM cells were examined by immunofluorescence microscopy using anti-vinculin (1:3000; Sigma-Aldrich; St. Louis, Mo.), anti-ILK (1:1000; Upstate Group, LLC; Charlottesville, Va.), anti-talin (1:1000; Chemicon; Temecula, Calif.), anti-paxillin (1:1000; BD Biosciences; San Jose, Calif.) or anti-FAK (1:1000; BD Biosciences) antibodies to reveal actin stress fibers and focal adhesions. […] Cell images were acquired with a Zeiss AxioCam HRm camera mounted on a Zeiss Axiophan 2 Imaging fluorescence microscope together with AxioVision v.3.1 software. The percentage of spread cells was determined by counting polygonal cells containing stress fibers (spread cells) versus rounded cells lacking stress fibers (non-spread cells) from eight to twelve fields.

O=c1cc(N2CCOCC2)oc2c(-c3ccccc3)cccc12 [LY29400] was tested. Which “percentage of spread cells” value (LY29400 25 μM added to ILK inhibitor plus soluble Hep II domain 472 nM, p<0.008) did it give?
Its value is 28%.

And the “percentage of spread cells” value (administered alone, compared to control cells, p<0.2)?
The value was 35%.
